Data: PMC3059997, “Exploring Indirect Sources of Human Exposure to Perfluoroalkyl Carboxylates (PFCAs): Evaluating Uptake, Elimination, and Biotransformation of Polyfluoroalkyl Phosphate Esters (PAPs) in the Rat” (Environmental Health Perspectives, 2010)

How the values were obtained:
[1] = Elimination experiment: monoPAP mixture by IV injection, analytes in whole blood; format: in vivo, Sprague-Dawley rats; conditions: male, Sprague-Dawley, rat, in vivo, monoPAP IV dose
Procedure: (§1) This research was conducted under an animal use protocol approved by the University of Toronto Animal Care Committee. All animals were treated humanely and with regard for alleviation of suffering. Sprague-Dawley rats were obtained from Charles River Laboratories Inc. (Sherbrooke, QC, Canada) The animals were singly housed and exposed to a 12/12 hr light/dark cycle with food and water available ad libitum. Blood samples were collected from the saphenous vein using Microvette CB 300 vials (Sarstedt AG & Co., Montreal, QC, Canada) embedded with lithium-heparin as an anticoagulant. Whole-blood samples were stored at −20°C, and urine and feces samples were stored at 4°C.
(§2) Two groups of four 8-week-old male rats were administered a mixture of 4:2, 6:2, 8:2, and 10:2 diPAP or monoPAP, respectively, each at about 15 mg/kg, at 2 mL/kg by intravenous (IV) injection into the lateral tail vein. The dosing vehicle was 50:50 propylene glycol:water. Two control male rats were administered clean vehicle at 2 mL/kg [for details see Supplemental Material, Table 3 (doi:10.1289/ehp.1002409)].
(§3) Blood was collected from all animals 3 days before dosing to establish background contamination. For the uptake experiment, blood samples were collected at 1, 3, and 6 hr and 1, 2, 4, 7, 10, 14, 18, and 22 days after dosing. For the elimination experiment, blood samples were collected at 2, 4, and 6 hr and 1, 2, 4, 8, 11, 15, and 18 days after dosing. On the final sampling day, the animals were sacrificed by carbon dioxide asphyxiation, and about 10 mL of blood was collected by cardiac puncture into a BD Vacutainer embedded with lithium-heparin.
(§4) The compounds of interest fall into four categories: a) the diPAP and monoPAP parent compounds, b) the saturated and unsaturated fluorotelomer carboxylic acid (FTCA and FTUCA) metabolic intermediates, c) the FTOH-sulfate and FTOH-glucuronide phase II metabolites, and d) the final PFCA biotransformation products [see Supplemental Material, Table 1 (doi:10.1289/ehp.1002409)]. We analyzed these compounds in whole blood, urine, and feces samples. For full analytical details, see Supplemental Material. All PFCAs, FTCAs, FTUCAs, and phase II metabolites were quantified by internal calibration. Because internal standards were not available, monoPAPs and diPAPs were quantified by standard addition. We performed spike and recovery experments to validate the extraction and quantification techniques used (for details, see Supplemental Material).
(§5) Analyte and matrix specific limits of detection (LODs) and limits of quantification (LOQs) are provided in Supplemental Material (doi:10.1289/ehp.1002409). For the purpose of calculating means, values < LOD were assigned a value of zero, and values < LOQ but > LOD were used unaltered but are indicated by asterisks in figures and parentheses in tables. Values are presented using the arithmetic mean ± SE. Full data sets are available in Supplemental Material.

[2] = Elimination experiment: diPAP mixture by IV injection, analytes in whole blood; format: in vivo, Sprague-Dawley rats; conditions: male, Sprague-Dawley, rat, in vivo, diPAP IV dose, whole blood
Procedure: as §1, §2, §3, §4
as §5, with “Material. […]” for “Material.”

[3] = Uptake experiment: diPAP mixture by oral gavage, analytes in whole blood; format: in vivo, Sprague-Dawley rats; conditions: male, Sprague-Dawley, rat, in vivo, po, diPAP gavage dose, whole blood
Procedure: as §1
(§6) Two groups of four 8-week-old male rats were administered a mixture of 4:2, 6:2, 8:2, and 10:2 diPAP or monoPAP, respectively, each at about 50 mg/kg, at 4 mL/kg by oral gavage without prior fasting. […] Two control male rats were administered clean vehicle at 4 mL/kg [for details, see Supplemental Material, Table 3 (doi:10.1289/ehp.1002409)].
as §3, §4
as §5, with “Material. […]” for “Material.”

[4] = Uptake experiment: monoPAP mixture by oral gavage, analytes in whole blood; format: in vivo, Sprague-Dawley rats; conditions: male, Sprague-Dawley, rat, in vivo, po, monoPAP gavage dose
Procedure: as §1, §6, §3, §4, §5

[5] = set-up: method as in Olsen et al. 2007; conditions: ref Olsen et al. 2007; cited from earlier work

Compound `O=C(O)C(F)(F)C(F)(F)C(F)(F)C(F)(F)C(F)(F)C(F)(F)C(F)(F)F` [PFOA, perfluorooctanoic acid] has a Cmax ([1]; 15 mg/kg, whole blood, read-out: Cmax) of 8.5 ± 1.4 ng/g, a Tmax ([1]; 15 mg/kg, whole blood, read-out: Tmax (converted)) of 96 h and a Half-life ([1]; about 15 mg/kg each, PFCA product in whole blood, read-out: Half-life (converted)) of 288 h. It also gave a Cmax ([2]; 15 mg/kg, mean ± SE, values in parentheses < LOQ but > LOD, read-out: Cmax) of 9.3 ± 2.4 ng/g, a Tmax ([2]; 15 mg/kg, read-out: Tmax (converted)) of 48 h and a Half-life ([2]; about 15 mg/kg each, mean ± SE, read-out: Half-life (converted)) of 552 h. The Cmax ([3]; 50 mg/kg, mean ± SE, values in parentheses < LOQ but > LOD, read-out: Cmax) was 7.2 ± 1.7 ng/g, the Tmax ([3]; 50 mg/kg, read-out: Tmax (converted)) was 96 h and the Half-life ([3]; about 50 mg/kg each, mean ± SE, read-out: Half-life (converted)) was 264 h. For the same compound, the Tmax ([4]; 50 mg/kg, whole blood, read-out: Tmax (converted)) was 24 h, the Cmax ([4]; 50 mg/kg, whole blood, values in parentheses < LOQ but > LOD, read-out: Cmax) was 28 ± 8 ng/g and the Half-life ([4]; about 50 mg/kg each, PFCA product in whole blood, read-out: Half-life (converted)) was 240 h. The “Human serum half-life (arithmetic)” value [5] was 4.5 years.
